From patent US20230277534A1 (Plexxikon Inc., priority 2011, published 2023)

What was measured:
[1] = system: COLO205 colon adenocarcinoma cells (B-Raf V600E mutation); test: COLO205 cell growth inhibition (ATPlite); format: cell-based; settings: Homo sapiens, COLO 205, 72 h, 3 days
How it was run: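 Cells treated for 3 days at 37 °C, 5% CO2 with an 8-point 1:3 dilution series, top final concentration 10 μM, DMSO control. ATPlite luminescence used as a measure of cell number; IC50 from reading versus concentration.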

B-Raf V600E = B-Raf V600E (Homo sapiens (Human), UniProt P15056, V600E); test: B-Raf V600E kinase biochemical activity assay (AlphaScreen, biotin-MEK1 substrate); settings: 100 μM ATP
B-Raf V600E, sequence (P15056 whole entry V600E): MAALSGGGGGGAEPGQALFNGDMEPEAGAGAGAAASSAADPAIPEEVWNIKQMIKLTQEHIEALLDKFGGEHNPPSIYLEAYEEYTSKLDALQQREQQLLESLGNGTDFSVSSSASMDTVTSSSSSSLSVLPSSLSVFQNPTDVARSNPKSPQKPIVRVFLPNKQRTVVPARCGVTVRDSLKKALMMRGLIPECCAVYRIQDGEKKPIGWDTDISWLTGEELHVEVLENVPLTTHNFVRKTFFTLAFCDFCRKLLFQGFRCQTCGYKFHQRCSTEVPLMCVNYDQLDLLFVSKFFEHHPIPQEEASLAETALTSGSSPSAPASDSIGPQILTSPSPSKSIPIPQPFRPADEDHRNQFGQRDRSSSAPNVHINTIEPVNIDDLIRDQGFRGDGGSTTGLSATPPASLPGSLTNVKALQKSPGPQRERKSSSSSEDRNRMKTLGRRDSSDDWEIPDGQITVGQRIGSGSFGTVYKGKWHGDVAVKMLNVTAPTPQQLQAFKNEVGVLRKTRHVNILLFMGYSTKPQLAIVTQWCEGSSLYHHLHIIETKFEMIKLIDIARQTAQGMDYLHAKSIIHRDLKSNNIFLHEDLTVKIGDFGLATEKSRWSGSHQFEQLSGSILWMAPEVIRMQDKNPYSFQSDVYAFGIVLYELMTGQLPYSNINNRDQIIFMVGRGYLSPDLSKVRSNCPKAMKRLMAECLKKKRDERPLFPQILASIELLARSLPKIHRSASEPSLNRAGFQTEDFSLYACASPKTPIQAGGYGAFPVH
How it was run: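 IC50 was derived from AlphaScreen signal (anti-phospho-MEK1/2 antibody with streptavidin donor and Protein A acceptor beads, 3 h) across 8 compound concentrations. The kinase step ran 45 min at room temperature: 0.1 ng B-Raf V600E, 100 nM biotin-MEK1, 100 μM final ATP, pH 7.0 HEPES with MgCl2/MnCl2.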

[2] = system: IPC-298 human melanoma cell line that expresses activated NRAS; test: IPC-298_P-ERK cell activation assay (phosphorylated ERK, AlphaScreen); format: cell-based; settings: 1 h, IPC-298 cells, P-ERK activation, compound for one hour
Protocol: B9 is a squamous cell carcinoma cell line expressing activated HRAS that was isolated from a DMBA/TPA-induced mouse model of skin carcinogenesis (Stoler, et al. The Journal of Cell Biology, 1993, 122(5), 1103-17). IPC-298 is a human melanoma cell line that expresses activated NRAS (Aubert, et al. International Journal of Cancer, 1993, 54(5), 784-92). To determine whether compounds induce phosphorylated ERK and MEK, cells are plated in a 96-well dish and treated with an 8-point titration of compound for one hour at 37° C. The media is then removed and the cells are incubated with lysis buffer containing protease and phosphatase inhibitors. Phosphorylated ERK and MEK in the resulting lysates is detected using AlphaScreen™ technology. To detect phosphorylated ERK, cell lysates are incubated with streptavidin-coated donor beads, anti-mouse IgG acceptor beads, a biotinylated anti-ERK1/2 rabbit antibody, and a mouse antibody that recognizes ERK1/2 only when it is phosphorylated on Thr202 and Tyr204. The biotinylated ERK1/2 antibody will bind to both the streptavidin-coated donor beads and to ERK1/2 (regardless of its phosphorylation state), and the phospho-ERK1/2 antibody will bind to the acceptor beads and to ERK1/2 that is phosphorylated at Thr202/Tyr204. Excitation of the beads with laser light at 680 nm produces singlet oxygen, which is rapidly quenched unless the beads are in close proximity. When ERK is phosphorylated, both antibodies can bind the same protein, bringing the donor and acceptor beads into close proximity, producing a signal that can be measured at 580 nm. MEK phosphorylation is detected using a similar approach, only with antibodies directed against total MEK1/2 and MEK1/2 that is phosphorylated at Ser217 and Ser221.

Row | IC50 [1] | IC50 (B-Raf V600E) | EC50 [2] | SMILES
1 | < 1 µM | < 0.1 µM | > 10 µM | N#CC1(c2ccc(-c3cnc4[nH]cc(C(=O)c5cccc(NS(=O)(=O)N6CCCC6)c5F)c4c3)cc2)CC1 [Compound P-0050, N-[3-[5-[4-(1-cyanocyclopropyl)phenyl]-1H-pyrrolo[2,3-b]pyridine-3-carbonyl]-2-fluoro-phenyl]pyrrolidine-1-sulfonamide]
2 | > 1 µM | < 0.1 µM | > 2 µM | CNS(=O)(=O)Nc1ccc(F)c(C(=O)c2c[nH]c3ncc(-c4cnc(C5CC5)nc4)cc23)c1F [Compound P-0334, [5-(2-cyclopropylpyrimidin-5-yl)-1H-pyrrolo[2,3-b]pyridin-3-yl]-[2,6-difluoro-3-(methylsulfamoylamino)phenyl]methanone]
3 | < 1 µM | < 0.1 µM | > 10 µM | CCN(C)S(=O)(=O)Nc1cccc(C(=O)c2c[nH]c3ncc(-c4cnc(C5CC5)nc4)cc23)c1F [Compound P-0058, 5-(2-cyclopropylpyrimidin-5-yl)-3-[3-[[ethyl(methyl)sulfamoyl]amino]-2-fluoro-benzoyl]-1H-pyrrolo[2,3-b]pyridine]
4 | < 1 µM | < 0.1 µM | > 10 µM | O=C(c1cccc(NS(=O)(=O)N2CCCC2)c1F)c1c[nH]c2ncc(-c3cccnc3)cc12 [Compound P-0043, N-[2-fluoro-3-[5-(3-pyridyl)-1H-pyrrolo[2,3-b]pyridine-3-carbonyl]phenyl]pyrrolidine-1-sulfonamide]
5 | < 1 µM | – | > 10 µM | Cn1cc(-c2cnc3[nH]cc(C(=O)c4cccc(NS(=O)(=O)CC5CC5)c4F)c3c2)cn1 [Compound P-0042, 1-cyclopropyl-N-[2-fluoro-3-[5-(1-methylpyrazol-4-yl)-1H-pyrrolo[2,3-b]pyridine-3-carbonyl]phenyl]methanesulfonamide]
6 | < 1 µM | < 0.1 µM | > 10 µM | CCN(C)S(=O)(=O)Nc1cccc(C(=O)c2c[nH]c3ncc(-c4cnc(C(C)C)nc4)cc23)c1F [Compound P-0057, 3-[3-[[ethyl(methyl)sulfamoyl]amino]-2-fluoro-benzoyl]-5-(2-isopropylpyrimidin-5-yl)-1H-pyrrolo[2,3-b]pyridine]
7 | < 1 µM | < 0.1 µM | > 10 µM | CC(C)c1ncc(-c2cnc3[nH]cc(C(=O)c4cccc(NS(=O)(=O)N(C)C)c4F)c3c2)cn1 [Compound P-0051, 3-[3-(dimethylsulfamoylamino)-2-fluoro-benzoyl]-5-(2-isopropylpyrimidin-5-yl)-1H-pyrrolo[2,3-b]pyridine]
8 | < 1 µM | < 0.1 µM | > 2 µM | CCN(C)S(=O)(=O)Nc1cccc(C(=O)c2c[nH]c3ncc(-c4ccc(C#N)c(OC)c4)cc23)c1F [Compound P-0060, 5-(4-cyano-3-methoxy-phenyl)-3-[3-[[ethyl(methyl)sulfamoyl]amino]-2-fluoro-benzoyl]-1H-pyrrolo[2,3-b]pyridine]
9 | > 1 µM | < 0.1 µM | > 10 µM | Cc1cnc2[nH]cc(C(=O)c3cccc(NS(=O)(=O)N4CCCC4)c3F)c2c1 [Compound P-0023, N-[2-fluoro-3-(5-methyl-1H-pyrrolo[2,3-b]pyridine-3-carbonyl)phenyl]pyrrolidine-1-sulfonamide]
10 | < 1 µM | < 0.1 µM | > 10 µM | CCCN(C)S(=O)(=O)Nc1cccc(C(=O)c2c[nH]c3ncc(-c4cnc(OC)nc4)cc23)c1F [Compound P-0040, 3-[2-fluoro-3-[[methyl(propyl)sulfamoyl]amino]benzoyl]-5-(2-methoxypyrimidin-5-yl)-1H-pyrrolo[2,3-b]pyridine]
11 | < 1 µM | < 0.1 µM | > 10 µM | CC(C)c1ncc(-c2cnc3[nH]cc(C(=O)c4cccc(NS(=O)(=O)N5CCCC5)c4F)c3c2)cn1 [Compound P-0047, N-[2-fluoro-3-[5-(2-isopropylpyrimidin-5-yl)-1H-pyrrolo[2,3-b]pyridine-3-carbonyl]phenyl]pyrrolidine-1-sulfonamide]
12 | < 1 µM | < 0.1 µM | > 10 µM | CN(C)S(=O)(=O)Nc1cccc(C(=O)c2c[nH]c3ncc(-c4cnc(NC5CC5)nc4)cc23)c1F [Compound P-0064, 5-[2-(cyclopropylamino)pyrimidin-5-yl]-3-[3-(dimethylsulfamoylamino)-2-fluoro-benzoyl]-1H-pyrrolo[2,3-b]pyridine]
13 | < 1 µM | < 0.1 µM | > 10 µM | CN(C)S(=O)(=O)Nc1cccc(C(=O)c2c[nH]c3ncc(-c4ccc(C5(C#N)CC5)cc4)cc23)c1F [Compound P-0055, 5-[4-(1-cyanocyclopropyl)phenyl]-3-[3-(dimethylsulfamoylamino)-2-fluoro-benzoyl]-1H-pyrrolo[2,3-b]pyridine]
14 | < 1 µM | – | > 10 µM | CCN(C)S(=O)(=O)Nc1cccc(C(=O)c2c[nH]c3ncc(-c4cnc(OC)nc4)cc23)c1F [Compound P-0020]
15 | < 1 µM | – | > 10 µM | CCN(C)S(=O)(=O)Nc1cccc(C(=O)c2c[nH]c3ncc(-c4ccc(C)nc4)cc23)c1F [Compound P-0033]
16 | < 1 µM | – | > 10 µM | COc1ncc(-c2cnc3[nH]cc(C(=O)c4cccc(NS(=O)(=O)N5CCCC5)c4F)c3c2)c(OC)n1 [Compound P-0044, N-[3-[5-(2,4-dimethoxypyrimidin-5-yl)-1H-pyrrolo[2,3-b]pyridine-3-carbonyl]-2-fluoro-phenyl]pyrrolidine-1-sulfonamide]
17 | < 1 µM | – | > 8 µM | CCN(C)S(=O)(=O)Nc1ccc(F)c(C(=O)c2c[nH]c3ncc(-c4cnc(OC)nc4)cc23)c1F [Compound P-0014]
18 | < 1 µM | – | > 4 µM | COc1cc(-c2cnc3[nH]cc(C(=O)c4c(F)ccc(NS(=O)(=O)N5CCCC5)c4F)c3c2)ccn1 [Compound P-0287, N-[2,4-difluoro-3-[5-(2-methoxy-4-pyridyl)-1H-pyrrolo[2,3-b]pyridine-3-carbonyl]phenyl]pyrrolidine-1-sulfonamide]
19 | > 1 µM | – | > 10 µM | CCN(C)S(=O)(=O)Nc1cccc(C(=O)c2c[nH]c3ncc(C#N)cc23)c1F [Compound P-0039, 5-cyano-3-[3-[[ethyl(methyl)sulfamoyl]amino]-2-fluoro-benzoyl]-1H-pyrrolo[2,3-b]pyridine]
20 | > 1 µM | – | > 10 µM | CCN(C)S(=O)(=O)Nc1cccc(C(=O)c2c[nH]c3ncc(-c4ccc(Cl)cc4)cc23)c1F [Compound P-0019]
21 | – | < 0.1 µM | > 10 µM | CN(C)c1ccc(-c2cnc3[nH]cc(C(=O)c4cccc(NS(=O)(=O)N5CCCC5)c4F)c3c2)cn1 [Compound P-0046, N-[3-[5-[6-(dimethylamino)-3-pyridyl]-1H-pyrrolo[2,3-b]pyridine-3-carbonyl]-2-fluoro-phenyl]pyrrolidine-1-sulfonamide]
22 | < 1 µM | – | > 10 µM | COc1ncc(-c2cnc3[nH]cc(C(=O)c4cccc(NS(=O)(=O)N(C)C5CC5)c4F)c3c2)cn1 [Compound P-0025]
23 | > 1 µM | – | > 10 µM | CCN(C)S(=O)(=O)Nc1cccc(C(=O)c2c[nH]c3ncc(-c4ccc(F)cc4)cc23)c1F [Compound P-0034]
24 | > 1 µM | – | > 10 µM | CN(C)S(=O)(=O)Nc1cccc(C(=O)c2c[nH]c3ncc(-c4ccc(F)cc4)cc23)c1F [Compound P-0035]
25 | – | > 0.1 µM | > 10 µM | COc1ncc(-c2cnc3[nH]cc(C(=O)c4cccc(NS(=O)(=O)N5CCC(OCc6ccccc6)C5)c4F)c3c2)cn1 (stereo not drawn) [Compound P-0041, 3-benzyloxy-N-[2-fluoro-3-[5-(2-methoxypyrimidin-5-yl)-1H-pyrrolo[2,3-b]pyridine-3-carbonyl]phenyl]pyrrolidine-1-sulfonamide]
26 | – | < 0.1 µM | > 10 µM | O=C(c1c(F)ccc(NS(=O)(=O)N2CCCC2)c1F)c1c[nH]c2ncc(-c3ccc(Cl)cc3)cc12 [Compound P-0021]
27 | – | < 0.1 µM | > 4 µM | CCN(C)S(=O)(=O)Nc1ccc(F)c(C(=O)c2c[nH]c3ncc(-c4ccc(C#N)cc4)cc23)c1F [Compound P-0300, 5-(4-cyanophenyl)-3-[3-[[ethyl(methyl)sulfamoyl]amino]-2,6-difluoro-benzoyl]-1H-pyrrolo[2,3-b]pyridine]
